Experimental data from article PMC11396129, “Oxindole–benzothiazole hybrids as CDK2 inhibitors and anticancer agents: design, synthesis and biological evaluation” (BMC Chemistry, 2024).

Assays:
Assay type in all cases: cell-based, human
[1] = tested on: PC-3; test: NCI 60 panel growth inhibition (SRB), prostate cancer; conditions: PC-3, 10 μM
Summary of the method: (§1)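 Human tumour lines were plated according to doubling time and exposed to five-point dilution series, 10-fold or half-log, of each compound. SRB-based growth percentages used time-zero and control absorbances as references.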

[2] = tested on: DU-145; test: as above; conditions: DU-145, 10 μM
Summary of the method: as §1

[3] = tested on: SK-MEL-28; test: NCI 60 panel growth inhibition (SRB), melanoma; conditions: SK-MEL-28, 10 μM
Summary of the method: as §1

[4] = tested on: MDA-MB-435; test: NCI 60 panel growth inhibition (SRB), melanoma; conditions: MDA-MB-435, 10 μM
Summary of the method: as §1

[5] = tested on: MALME-3M; test: NCI 60 panel growth inhibition (SRB), melanoma; conditions: 10 μM
Summary of the method: as §1

[6] = tested on: SK-MEL-5; test: NCI 60 panel growth inhibition (SRB), melanoma; conditions: SK-MEL-5, 10 μM
Summary of the method: as §1

[7] = tested on: UACC-62; test: NCI 60 panel growth inhibition (SRB), melanoma; conditions: UACC-62, 10 μM
Summary of the method: as §1

[8] = tested on: M14; test: NCI 60 panel growth inhibition (SRB), melanoma; conditions: M14, 10 μM
Summary of the method: as §1

[9] = tested on: UACC-257; test: NCI 60 panel growth inhibition (SRB), melanoma; conditions: UACC-257, 10 μM
Summary of the method: as §1

[10] = tested on: LOX IMVI; test: NCI 60 panel growth inhibition (SRB), melanoma; conditions: 10 μM
Summary of the method: as §1

[11] = tested on: A498; test: NCI 60 panel growth inhibition (SRB), renal cancer; conditions: A498, 10 μM
Summary of the method: as §1

[12] = tested on: SN12C; test: NCI 60 panel growth inhibition (SRB), renal cancer; conditions: 10 μM
Summary of the method: as §1

[13] = tested on: ACHN; test: NCI 60 panel growth inhibition (SRB), renal cancer; conditions: 10 μM
Summary of the method: as §1

[14] = tested on: CAKI-1; test: NCI 60 panel growth inhibition (SRB), renal cancer; conditions: CAKI-1, 10 μM
Summary of the method: as §1

[15] = tested on: MCF7; test: NCI 60 panel growth inhibition (SRB), breast cancer; conditions: MCF7, 10 μM
Summary of the method: as §1

[16] = tested on: MDA-MB-468; test: as above; conditions: MDA-MB-468, 10 μM
Summary of the method: as §1

[17] = tested on: T-47D; test: as above; conditions: 10 μM
Summary of the method: as §1

[18] = tested on: MDA-MB-231/ATCC; test: as above; conditions: 10 μM
Summary of the method: as §1

[19] = tested on: HS 578T; test: as above; conditions: 10 μM
Summary of the method: as §1

[20] = tested on: BT-549; test: as above; conditions: BT-549, 10 μM
Summary of the method: as §1

[21] = tested on: HCT-116; test: NCI 60 panel growth inhibition (SRB), colon cancer; conditions: HCT-116, 10 μM
Summary of the method: as §1

[22] = tested on: SW-620; test: NCI 60 panel growth inhibition (SRB), colon cancer; conditions: SW-620, 10 μM
Summary of the method: as §1

[23] = tested on: COLO 205; test: NCI 60 panel growth inhibition (SRB), colon cancer; conditions: COLO 205, 10 μM
Summary of the method: as §1

[24] = tested on: KM12; test: NCI 60 panel growth inhibition (SRB), colon cancer; conditions: KM12, 10 μM
Summary of the method: as §1

[25] = tested on: HCT-15; test: NCI 60 panel growth inhibition (SRB), colon cancer; conditions: HCT-15, 10 μM
Summary of the method: as §1

[26] = tested on: HCC-2998; test: NCI 60 panel growth inhibition (SRB), colon cancer; conditions: HCC-2998, 10 μM
Summary of the method: as §1

[27] = tested on: NCI-H460; test: NCI 60 panel growth inhibition (SRB), non-small cell lung cancer; conditions: NCI-H460, 10 μM
Summary of the method: as §1

[28] = tested on: NCI-H23; test: as above; conditions: NCI-H23, 10 μM
Summary of the method: as §1

[29] = tested on: NCI-H226; test: as above; conditions: NCI-H226, 10 μM
Summary of the method: as §1

[30] = tested on: EKVX; test: as above; conditions: 10 μM
Summary of the method: as §1

[31] = tested on: NCI-H522; test: as above; conditions: NCI-H522, 10 μM
Summary of the method: as §1

[32] = tested on: HOP-62; test: as above; conditions: HOP-62, 10 μM
Summary of the method: as §1

[33] = tested on: A549/ATCC; test: as above; conditions: 10 μM
Summary of the method: as §1

[34] = tested on: NCI-H322M; test: as above; conditions: 10 μM
Summary of the method: as §1

[35] = tested on: HOP-92; test: as above; conditions: HOP-92, 10 μM
Summary of the method: as §1

COc1ccc2c(c1)C(=NNC(=O)COc1ccccc1-c1nc3ccccc3s1)C(=O)N2 [Compound 9c, 2-(2-(Benzo[d]thiazol-2-yl)phenoxy)-N′-(5-methoxy-2-oxoindolin-3-ylidene)acetohydrazide]
GI% [1]: 43.83%
GI% [2]: 6.75%
GI% [3]: – (GI% < 5%)
GI% [4]: 19.69%
GI% [5]: 13.58%
GI% [6]: 44.97%
GI% [7]: 28.02%
GI% [8]: 5.86%
GI% [9]: – (GI% < 5%)
GI% [10]: 9.06%
GI% [11]: – (GI% < 5%)
GI% [12]: 12.43%
GI% [13]: 9.04%
GI% [14]: 28.09%
GI% [15]: 18.66%
GI% [16]: 29.51%
GI% [17]: 36.38%
GI% [18]: – (GI% < 5%)
GI% [19]: – (GI% < 5%)
GI% [20]: 18.71%
GI% [21]: 18.17%
GI% [22]: – (GI% < 5%)
GI% [23]: – (GI% < 5%)
GI% [24]: 15.67%
GI% [25]: 40.05%
GI% [26]: – (GI% < 5%)
GI% [27]: 6.01%
GI% [28]: 17.94%
GI% [29]: 23.90%
GI% [30]: 25.93%
GI% [31]: – (GI% < 5%)
GI% [32]: – (GI% < 5%)
GI% [33]: 25.86%
GI% [34]: – (GI% < 5%)
GI% [35]: – (GI% < 5%)

COc1ccc(-c2nc3ccccc3s2)cc1OCC(=O)NN=C1C(=O)Nc2ccc(C)cc21 [Compound 9n, 2-(5-(Benzo[d]thiazol-2-yl)-2-methoxyphenoxy)-N′-(5-methyl-2-oxoindolin-3-ylidene)acetohydrazide]
GI% [1]: – (GI% < 5%)
GI% [2]: 7.08%
GI% [3]: 6.91%
GI% [4]: – (GI% < 5%)
GI% [5]: 18.46%
GI% [6]: 7.31%
GI% [7]: 13.88%
GI% [8]: – (GI% < 5%)
GI% [9]: – (GI% < 5%)
GI% [10]: – (GI% < 5%)
GI% [11]: – (GI% < 5%)
GI% [12]: 5.76%
GI% [13]: 8.57%
GI% [14]: 12.63%
GI% [15]: 25.33%
GI% [16]: – (GI% < 5%)
GI% [17]: 13.50%
GI% [18]: 12.37%
GI% [19]: 5.72%
GI% [20]: – (GI% < 5%)
GI% [21]: – (GI% < 5%)
GI% [22]: 6.33%
GI% [23]: – (GI% < 5%)
GI% [24]: – (GI% < 5%)
GI% [25]: 9.62%
GI% [26]: – (GI% < 5%)
GI% [27]: – (GI% < 5%)
GI% [28]: 12.32%
GI% [29]: – (GI% < 5%)
GI% [30]: – (GI% < 5%)
GI% [31]: – (GI% < 5%)
GI% [32]: – (GI% < 5%)
GI% [33]: – (GI% < 5%)
GI% [34]: 10.32%
GI% [35]: – (GI% < 5%)

COc1cccc(-c2nc3ccccc3s2)c1OCC(=O)NN=C1C(=O)Nc2ccc(C)cc21 [Compound 9h, 2-(2-(Benzo[d]thiazol-2-yl)-6-methoxyphenoxy)-N′-(5-methyl-2-oxoindolin-3-ylidene)acetohydrazide]
GI% [1]: 46.62%
GI% [2]: – (GI% < 5%)
GI% [3]: – (GI% < 5%)
GI% [4]: – (GI% < 5%)
GI% [5]: 16.42%
GI% [6]: 62.94%
GI% [7]: 34.75%
GI% [8]: 9.67%
GI% [9]: – (GI% < 5%)
GI% [10]: – (GI% < 5%)
GI% [11]: – (GI% < 5%)
GI% [12]: 9.88%
GI% [13]: 11.83%
GI% [14]: 36.68%
GI% [15]: 37.74%
GI% [16]: 26.10%
GI% [17]: 41.06%
GI% [18]: 13.89%
GI% [19]: 9.01%
GI% [20]: 18.44%
GI% [21]: 22.91%
GI% [22]: – (GI% < 5%)
GI% [23]: 7.03%
GI% [24]: 8.90%
GI% [25]: 5.56%
GI% [26]: – (GI% < 5%)
GI% [27]: – (GI% < 5%)
GI% [28]: 13.40%
GI% [29]: 26.01%
GI% [30]: 27.92%
GI% [31]: – (GI% < 5%)
GI% [32]: – (GI% < 5%)
GI% [33]: 24.44%
GI% [34]: 6.24%
GI% [35]: 23.13%
